According to patent US5928868A, “Three hybrid screening assay” (Massachusetts Institute of Technology, priority 1997, dated 1999):

Assays:
[1] = test system: glucocorticoid receptor; settings: cited from earlier work
[2] = test system: Jurkat cDNA library subcloned into pJG4-5; settings: 1 μM dexamethasone-FK506; growth inhibited by 10 μM FK506
Description: The yeast strain: EGY48 ura3 trp1 his3 Lex A operator-LEU 2; was transformed with pEGHDP and PSH18-34 and plated onto synthetic complete (SC) medium (His^-, Ura^-). The resultant EGY48 harboring pEGHBD and pSH18-34 was transformed with a Jurkat cDNA library subcloned into pJG4-5. […] Colonies were collected between days four and ten. All colonies were plated onto SC medium (His^-, Ura^-, Trp^-, Leu^-) containing galactose.

[3] = biological target: transcriptional activator-FKBP12 and Lex A DNA Binding Domain-Hormone Binding Domain of the Rat Glucocorticoid Receptor (UniProt P06536+P62942, C656G/F620S); assay: Yeast three hybrid screen, Lex A system (EGY48; lacZ and leu 2 reporters); type: cell-based, Saccharomyces cerevisiae (EGY 48); settings: 2% galactose
Chain of transcriptional activator-FKBP12 and Lex A DNA Binding Domain-Hormone Binding Domain of the Rat Glucocorticoid Receptor (P62942 2-108): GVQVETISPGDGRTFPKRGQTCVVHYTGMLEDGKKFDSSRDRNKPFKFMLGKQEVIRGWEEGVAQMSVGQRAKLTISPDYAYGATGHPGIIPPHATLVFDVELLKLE
Chain of transcriptional activator-FKBP12 and Lex A DNA Binding Domain-Hormone Binding Domain of the Rat Glucocorticoid Receptor (P06536 497-795 F620S/C656G): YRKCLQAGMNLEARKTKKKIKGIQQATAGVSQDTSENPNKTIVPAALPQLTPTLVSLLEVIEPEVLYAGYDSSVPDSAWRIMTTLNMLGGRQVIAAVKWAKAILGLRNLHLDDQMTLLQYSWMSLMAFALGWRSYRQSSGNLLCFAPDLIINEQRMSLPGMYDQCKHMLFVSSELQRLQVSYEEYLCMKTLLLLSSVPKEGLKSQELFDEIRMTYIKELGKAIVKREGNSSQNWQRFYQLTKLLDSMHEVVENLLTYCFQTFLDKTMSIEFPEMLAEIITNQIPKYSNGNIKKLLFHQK
From the text: A first vector containing the cDNA fragment encoding FKBP 12-transcriptional module was formed as follows. The cDNA encoding FKBP 12 was originally obtained from a human cDNA library prepared according to well known techniques (Current Protocols in Molecular Biology). The cDNA encoding the FKBP12 was amplified by PCR and subcloned into the EcoRI and XhoI sites of the pJG4-5 vector where the pJG4-5 vector already contains the transcriptional activator module. (Current Protocols in Molecular Biology). The resulting vector is called pJGFKBP.
A second vector encoding the hormone binding domain of rat glucocorticoid receptor (FIG. 4) and the Lex A binding protein was made as follows: A clone containing the full length rat glucocorticoid receptor with the C656G mutation was obtained according to Chakrabati et al. Journal of Biological Chemistry, (1991) vol 266, pp22075-22078. A fragment encoding amino acid residues 497-795 of the protein with the F620S mutation was generated by a standard two-step PCR reaction routinely used for the creation of point mutations. This fragment was flanked by restriction sites for MfeI and XhoI, and was subcloned into the EcoRI and XhoI sites of the pEG202 vector (Current Protocols in Molecular Biology) where the pEG202 vector contains the sequence which encodes for a protein which binds the bacterial Lex A operator. The resulting hybrid construct, designated pEGHDP encodes the second hybrid protein in the assay.
A third vector identified as pSH18-34 and containing the lacZ reporter gene downstream of a number of Lex A operators was made following standard techniques. (Current Protocols in Molecular Biology).
Saccharomyces cerevisiae (EGY 48) [Current Protocols on Molecular Biology], was transformed with the three vectors described above using standard lithium acetate transformation procedures. Positive transformants were selected by plating cells on complete minimal media yeast dropout plates containing 2% glucose, and lacking histidine, tryptophan and uracil. The transformed EGY48 yeast were then screened as described below.
(FIG. 6). […] This experiment was also performed on similar plates which were also leu^-. The leu 2 gene is used in EGY48 as a second reporter gene. Only yeast that grow in the absence of leucine contain a trimeric complex. These yeast grew well, with isolated colonies clearly visible at two days. Two control experiments were conducted by plating the transformed EGY48 strain onto complete minimal media Ura^-, His^-, Trp^- yeast dropout plates as in the aforementioned cases except the plates contained 2% glucose instead of 2% galactose. In the absence of galactose, the hybrid transcriptional activator-FKBP12 protein was not expressed since the gene encoding it is under the Gal1 promoter. […]

[4] = test system: FK506 binding proteins (FKBP); settings: cited from earlier work
[5] = biological target: T1, Gal 4 activation domain-human FKBP12 and Gal4 DNA binding domain-hormone binding domain of rat glucocorticoid receptor (UniProt P06536+P62942, C656G/F620S); type: cell-based, yeast strain Y190; settings: FK506 1 to 10 μM with 1 μM dexamethasone-FK506, 30° C., 12-16 hours
T1 sequence (P62942 2-108): as the sequence (P62942 2-108) above
T1 sequence (P06536 497-795 F620S/C656G): as the sequence (P06536 497-795 F620S/C656G) above
Description: The above yeast system has both a His- biosynthetic gene and a LacZ reporter gene as reporters for detection of three-hybrid interactions. We performed liquid β-galactosidase assay as follows. […] The culture were shaken vigorously at 30° C. for 12-16 hours. The yeast were harvested and the amount of β-galactosidase activity were quantified using established procedure (Current Protocol in Molecular Biology, Chapt. 13). […] This system is applied for screening a cDNA library to identify FKBPs that binds to FK506. The screening procedures are identical to those employed in Example 1.

[6] = biological target: T1, Gal 4 activation domain-human FKBP12 and Gal4 DNA binding domain-hormone binding domain of rat glucocorticoid receptor; settings: 10 μM FK506 with 1 μM dexamethasone-FK506, 30 mM 3-aminotriazole, three days
Description: A three-hybrid assay using a second Gal4 DNA binding domain and activation domain as described by Fields et al. (U.S. Pat. No. 5,468,614) and by Durfee et al. (1993) Genes and Development vol 7, pg 555-569 was evaluated. The hormone binding domain of rat glucocorticoid receptor (residues 497-795) containing either a single or double mutations (C656G and F620S) was PCR amplified using primers tagged with restriction sites and subcloned into the vector pASII to encode a fusion protein between the Gal4 DNA binding domain and the hormone binding domain of rat glucocorticoid receptor to give a plasmid pASHBD. The coding sequence of human FKBP12 was PCR amplified and subcloned into the vector pACTII to include a fusion protein between Gal 4 activation domain and human FKBP12. The resultant vector is called pACTFKBP. The vectors pASHBD and pACTFKBP were transformed into the yeast strain Y190 using lithium acetate method and the transformed yeast were selected on SC (Leu^-, Trp^-).

C[C@@H]1C[C@H]2[C@@H]3CCC4=CC(=O)C=C[C@]4(C)[C@@]3(F)[C@@H](O)C[C@]2(C)[C@@]1(O)C(=O)CO [dexamethasone]
affinity for the glucocorticoid receptor [1]: high affinity

dexamethasone-FK506
protein encoded by cDNA clones isolated with the hybrid ligand [2]: found to encode human FKBP12
reporter gene activation (Lac Z, blue color on X-Gal) ([3]; 1 μM hybrid ligand, Ura-, His-, Trp- plates with X-Gal): the yeast were blue at three days
time at which light blue color signifying reporter gene activation began to arise ([3]; 1 μM hybrid ligand, X-Gal plates): approximately 36 hours
growth in the absence of leucine (leu 2 reporter gene) ([3]; 1 μM hybrid ligand, leu- plates): grew well

C=CC[C@@H]1/C=C(\C)C[C@H](C)C[C@H](OC)[C@H]2O[C@@](O)(C(=O)C(=O)N3CCCC[C@H]3C(=O)O[C@H](/C(C)=C/[C@@H]3CC[C@@H](O)[C@H](OC)C3)[C@H](C)[C@@H](O)CC1=O)[C@H](C)C[C@@H]2OC [FK506]
binding affinity to FKBPs when linked through the effector domain ([4]; FK506 linked through the effector domain): low nanomolar binding affinity
binding affinities for FKBPs ([4]; free FK506): in the nanomolar range
competitive inhibition of trimeric complex formation / Lac Z activation (yeast color) ([3]; 10 μM FK506 with 1 μM dexamethasone-FK506 hybrid ligand): all of the yeast remained white
β-galactosidase activity in competition with hybrid ligand [5]: decrease in a FK506 dose-dependent manner
yeast colonies on selective plates in competition with hybrid ligand [6]: absent
